# Experimental data: patent publication US10913727B2, “Modulators of the integrated stress pathway” (Calico Life Sciences LLC, priority 2016, dated 2021)
# System: HEK293T cells carrying the ATF4 luciferase reporter
# Experiment: ATF4-Luc assay, in vitro model of Vanishing Cell White Matter Disease (VWMD)
# Assay type: cell-based
# Conditions: Homo sapiens, HEK-293T, 1 μg/mL tunicamycin, 7 hours, One Glo luminescence
# In short: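 Stable HEK293T line with human ATF4 5′-UTR–firefly luciferase reporter treated with 1 μg/mL tunicamycin plus 200 nM compound for 7 h. Luminescence read; EC50 derived.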
row,Structure (SMILES),EC50
1,"O=C(COc1ccc(Cl)c(F)c1)NC12CCC(NC(=O)c3ccncc3)(CC1)C(O)C2 (stereo not drawn) [Compound 218, N-{4-[2-(4-chloro-3-fluorophenoxy)acetamido]-2-hydroxybicyclo[2.2.2]octan-1-yl}pyridine-4-carboxamide]",> 2 µM
2,"COc1ccc(C(=O)NC23CC(NC(=O)COc4ccc(Cl)c(F)c4)(C2)C3)cc1OC [Compound 302, N-{3-[2-(4-chloro-3-fluorophenoxy)acetamido]bicyclo[1.1.1]pentan-1-yl}-3,4-dimethoxybenzamide]",> 2 µM
3,"N#Cc1ccc(C(=O)NC23CCC(NC(=O)COc4ccc(Cl)c(F)c4)(CC2)CC3O)cc1 (stereo not drawn) [Compound 210, N-{4-[2-(4-chloro-3-fluorophenoxy)acetamido]-2-hydroxybicyclo[2.2.2]octan-1-yl}-4-cyanobenzamide]",0.25 to 1 µM
4,"Cc1ncc(C(=O)NC23CCC(NC(=O)COc4ccc(Cl)c(F)c4)(CC2)[C@@H](O)C3)nc1C [Compound 672, N-{(3S)-4-[2-(4-chloro-3-fluorophenoxy)acetamido]-3-hydroxybicyclo[2.2.2]octan-1-yl}-5,6-dimethylpyrazine-2-carboxamide]",0.05 to 0.25 µM
5,"Cc1ncc(C(=O)NC23CC(NC(=O)COc4ccc(Cl)c(F)c4)(C2)C3)cn1 [Compound 121, N-{3-[2-(4-chloro-3-fluorophenoxy)acetamido]bicyclo[1.1.1]pentan-1-yl}-2-methylpyrimidine-5-carboxamide]",1 to 2 µM
6,"CN(CC1CCC1)c1cnc(C(=O)NC23CC(NC(=O)COc4ccc(Cl)c(F)c4)(C2)C3)cn1 [Compound 420, N-{3-[2-(4-chloro-3-fluorophenoxy)acetamido]bicyclo[1.1.1]pentan-1-yl}-5-[(cyclobutylmethyl)(methyl)amino]pyrazine-2-carboxamide]",> 2 µM
7,"CCc1nc(C(=O)NC23CC(NC(=O)COc4ccc5c(c4)OC(F)(F)O5)(C2)C3)cs1 [Compound 699, N-(3-{2-[(2,2-difluoro-2H-1,3-benzodioxol-5-yl)oxy]acetamido}bicyclo[1.1.1]pentan-1-yl)-2-ethyl-1,3-thiazole-4-carboxamide]",0.25 to 1 µM
8,"O=C(COc1ccc(Cl)c(F)c1)NC12CCC(NC(=O)c3cc(F)ccn3)(CC1)CC2O (stereo not drawn) [Compound 936, N-{4-[2-(4-chloro-3-fluorophenoxy)acetamido]-3-hydroxybicyclo[2.2.2]octan-1-yl}-4-fluoropyridine-2-carboxamide]",0.05 to 0.25 µM
9,"Cn1ncc2cc(C(=O)NC34CC(NC(=O)COc5ccc(Cl)c(F)c5)(C3)C4)cnc21 [Compound 620, N-{3-[2-(4-chloro-3-fluorophenoxy)acetamido]bicyclo[1.1.1]pentan-1-yl}-1-methyl-1H-pyrazolo[3,4-b]pyridine-5-carboxamide]",1 to 2 µM
10,"CC(C)Oc1ccc(C(=O)NC23CCC(NC(=O)COc4ccc(Cl)c(F)c4)(CC2)C(O)C3)nc1 (stereo not drawn) [Compound 912, N-{4-[2-(4-chloro-3-fluorophenoxy)acetamido]-3-hydroxybicyclo[2.2.2]octan-1-yl}-5-[(propan-2-yl)oxy]pyridine-2-carboxamide]",< 0.05 µM
11,"CCc1cnc(C(=O)NC23CC(NC(=O)COc4ccc(Cl)c(F)c4)(C2)C3)cn1 [Compound 708, N-{3-[2-(4-chloro-3-fluorophenoxy)acetamido]bicyclo[1.1.1]pentan-1-yl}-5-ethylpyrazine-2-carboxamide]",0.05 to 0.25 µM
12,"O=C(COc1ccc(Cl)c(F)c1)NC12CC(NC(=O)c3ccc4cccnc4n3)(C1)C2 [Compound 669, N-{3-[2-(4-chloro-3-fluorophenoxy)acetamido]bicyclo[1.1.1]pentan-1-yl}-1,8-naphthyridine-2-carboxamide]",0.25 to 1 µM
13,"O=C(COc1ccc(Cl)c(F)c1)NC12CC(NC(=O)c3ccccc3Cn3cccn3)(C1)C2 [Compound 890, N-{3-[2-(4-chloro-3-fluorophenoxy)acetamido]bicyclo[1.1.1]pentan-1-yl}-2-[(1H-pyrazol-1-yl)methyl]benzamide]",> 2 µM
14,"O=C(COc1ccc(Cl)c(F)c1)NC12CC(NC(=O)c3ccc(OCCO)nc3)(C1)C2 [Compound 161, N-{3-[2-(4-chloro-3-fluorophenoxy)acetamido]bicyclo[1.1.1]pentan-1-yl}-6-(2-hydroxyethoxy)pyridine-3-carboxamide]",1 to 2 µM
15,"CCNc1ccc(C(=O)NC23CC(NC(=O)COc4ccc(Cl)c(F)c4)(C2)C3)nc1 [Compound 269, N-{3-[2-(4-chloro-3-fluorophenoxy)acetamido]bicyclo[1.1.1]pentan-1-yl}-5-(ethylamino)pyridine-2-carboxamide]",0.25 to 1 µM
16,"O=C(COc1ccc(Cl)c(F)c1)NC12CC(Nc3cccc(-c4ccc(Cl)cc4)n3)(C1)C2 [Compound 398, 2-(4-chloro-3-fluorophenoxy)-N-(3-{[6-(4-chlorophenyl)pyridin-2-yl]amino}bicyclo[1.1.1]pentan-1-yl)acetamide]",> 2 µM
17,"O=C(COc1ccc(Cl)c(F)c1)NC12CC(Nc3cncc(C4CC4)n3)(C1)C2 [Compound 714, 2-(4-chloro-3-fluorophenoxy)-N-{3-[(6-cyclopropylpyrazin-2-yl)amino]bicyclo[1.1.1]pentan-1-yl}acetamide]",0.25 to 1 µM
18,"CC(C)c1cccc(C(=O)NC23CCC(NC(=O)COc4ccc(Cl)c(F)c4)(CC2)C(O)C3)n1 (stereo not drawn) [Compound 911, N-{4-[2-(4-chloro-3-fluorophenoxy)acetamido]-3-hydroxybicyclo[2.2.2]octan-1-yl}-6-(propan-2-yl)pyridine-2-carboxamide]",0.25 to 1 µM
19,"O=C(COc1ccc(Cl)c(F)c1)NC12CC(NC(=O)c3cc4cccnc4s3)(C1)C2 [Compound 798, N-{3-[2-(4-chloro-3-fluorophenoxy)acetamido]bicyclo[1.1.1]pentan-1-yl}thieno[2,3-b]pyridine-2-carboxamide]",> 2 µM
20,"O=C(COc1ccc(Cl)c(F)c1)NC12CC(NC(=O)c3ccc(F)cn3)(C1)C2 [Compound 262, N-{3-[2-(4-chloro-3-fluorophenoxy)acetamido]bicyclo[1.1.1]pentan-1-yl}-5-fluoropyridine-2-carboxamide]",0.05 to 0.25 µM
21,"CCc1nc(C(=O)NC23CC(NC(=O)COc4ccc(Cl)c(F)c4)(C2)C3)co1 [Compound 251, N-{3-[2-(4-chloro-3-fluorophenoxy)acetamido]bicyclo[1.1.1]pentan-1-yl}-2-ethyl-1,3-oxazole-4-carboxamide]",0.05 to 0.25 µM
22,"COCc1ccccc1C(=O)NC12CC(NC(=O)COc3ccc(Cl)c(F)c3)(C1)C2 [Compound 550, N-{3-[2-(4-chloro-3-fluorophenoxy)acetamido]bicyclo[1.1.1]pentan-1-yl}-2-(methoxymethyl)benzamide]",1 to 2 µM
23,"N#Cc1ccc(C(=O)NC23CCC(NC(=O)COc4ccc(Cl)c(F)c4)(CC2)CC3O)nc1 (stereo not drawn) [Compound 170, N-{4-[2-(4-chloro-3-fluorophenoxy)acetamido]-2-hydroxybicyclo[2.2.2]octan-1-yl}-5-cyanopyridine-2-carboxamide]",0.05 to 0.25 µM
24,"O=C(COc1ccc(C(F)(F)F)nc1)NC12CC(NC(=O)c3ccc(OC(F)(F)F)cn3)(C1)C2 [Compound 454, 5-(trifluoromethoxy)-N-[3-(2-{[6-(trifluoromethyl)pyridin-3-yl]oxy}acetamido)bicyclo[1.1.1]pentan-1-yl]pyridine-2-carboxamide]",0.05 to 0.25 µM
